Laboratory results published in publication PMC5797931 (Frontiers in Pharmacology, 2018).

What was measured:
in vivo = test: in vivo; design: species or system piglets (Landrace × large white); conditions: male, Landrace × large white (Seghers Hybrid), pig, 120 ug
Experimental: The current study was approved by the ethical committee of the Faculties of Veterinary Medicine and Bioscience Engineering of Ghent University (EC2014/184). Care and use of animals was in full compliance with the national (Belgian Royal Decree, [2013]) and European legislation (Anonymous, [2010]). […] Opti®, 6 months: […], Leuven, Belgium) and drinking water. Natural light was provided by translucent windows and the stable temperature was 23.2 ± 0.56°C. Higher temperatures were obtained in the rescue decks through heating lamps. In all age groups, a double lumen catheter was placed in the jugular vein according to Gasthuys et al. ([2017b]). After surgery, the piglets were housed individually to avoid displacement of the catheters. During single housing, a cotton towel was added to the decks and stables to mimic the smell of the other piglets. During the experiments, the stables were enriched with hanging chains, rubber toys and balls of different sizes. The environmental enrichment was rotated daily. […] Afterwards, the snout was closed during 30 s to ensure full dissolution of the lyophilisate. […] The CT-scans were processed using VGStudioMax (Volume Graphics GmbH, Heidelberg, Germany) and the body surface area (BSA) was determined after visualization and selection of the body surface in 3D (UGCT-Department of Physics and Astronomy, Ghent University, Ghent, Belgium). The GFR was determined as the clearance of the exogenous marker exo-iohexol (Gasthuys et al., [2017a]). […] Desmopressin plasma concentrations were determined at Aarhus University Hospital (Aarhus, Denmark) using a validated radioimmunoassay method as described by Emmeluth et al. […] Subsequently, based on a visual exploration of the plasma concentration-time profiles obtained in the growing piglets, a two-compartmental disposition model and a dual-input were evaluated to describe the absorption of the sublingual desmopressin lyophilisate. […]

[1] = human, in vivo; cited from earlier work

- CL/F (in vivo): 6580 mL/min
- Vd/F (in vivo): 131 L
- Cmax (in vivo; po): ~0.25 ng/mL
Compound: NC(=O)CC[C@@H]1NC(=O)[C@H](Cc2ccccc2)NC(=O)[C@H](Cc2ccc(O)cc2)NC(=O)CCSSC[C@@H](C(=O)N2CCC[C@H]2C(=O)N[C@H](CCCN=C(N)N)C(=O)NCC(N)=O)NC(=O)[C@H](CC(N)=O)NC1=O [desmopressin, 1-desamino-8-D-arginine vasopressin]
- F, absolute oral bioavailability [1]: < 1%
